Experimental findings from patent US8293736B2, “Purine compounds selective for PI3K P110 delta, and methods of use” (F. Hoffmann la Roche AG, priority 2010, dated 2012) are described below.

Assay [1] concerns the target T1, p110 alpha (Homo sapiens, UniProt P42336).
T1 construct: purchased Upstate Group, Millipore; Dundee, UK
Kind of assay: PI3K isoform inhibition assay (fluorescence polarization), p110 alpha. Type of assay: biochemical. The note with it: delta/alpha selectivity ratio. The protocol:
(§1) Determination of the activity of PI3 kinase activity of Formula I compounds is possible by a number of direct and indirect detection methods.
(§2) PI3K enzymatic activity was assayed by measuring the amount of product phosphatidylinositol 3,4,5-phosphate (PIP3) formed from substrate 4,5 phosphatidylinositol 4,5-phosphate (PIP2) using a fluorescence polarization displacement assay. The decrease in fluorescence polarization of a fluorescent PIP3 probe is measured as it is displaced from a PIP3-binding protein GRP-1 detector by PI3K-catalyzed product. […] The kinase reactions were initiated by the addition of 40 ng/mL p110α/p85α, 300 ng/mL p110β/p85α, 40 ng/mL p110γ, or 40 ng/mL p110δ/p85α (Upstate Group, Millipore; Dundee, UK), and 10 μM PIP2 (Echelon Biosciences) to the wells. […] After 60 minutes of incubation at room temperature to allow equilibration of labeled and unlabeled PIP3 binding, the parallel and perpendicular components of the fluorescence emissions from each sample were measured at an excitation wavelength of 530 nm and an emission wavelength of 590 nm using an Envision fluorescent plate reader with a rhodamine filter (PerkinElmer Life and Analytical Sciences; Wellesley, Mass.). The assay is capable of detecting 0.1-2.0 μM PIP3 product. The Ki apparent values were obtained by fitting the dose-dependent inhibition data to the Morrison equation for tight-binding, competitive inhibitors. Reference: R. A. Copeland, Enzymes. “A Practical Introduction to Structure, Mechanism and Data Analysis”.
The same protocol may be used to establish Ki values for p110α (alpha) PI3K binding.
The four Class I PI 3-kinases are cloned into baculovirus vectors as follows: […]

Assay [2] has as its target T2, p110 delta (Homo sapiens, UniProt O00329).
T2 construct: purchased Upstate Group, Millipore; Dundee, UK
Kind of assay: PI3K isoform inhibition assay (fluorescence polarization), p110 delta. Type of assay: biochemical. Particulars: Ki apparent, Morrison equation; 25 μM ATP, 10 μM PIP2. As to the method:
as §1, §2
The Formula I compound was serially diluted in 100% DMSO. The kinase reaction was incubated for 1 h at room temperature, and the reaction was terminated by the addition of PBS. IC50 values were subsequently determined using sigmoidal dose-response curve fit (variable slope). […]

The structures appear in SMILES notation.

T2 sequence (O00329 whole entry): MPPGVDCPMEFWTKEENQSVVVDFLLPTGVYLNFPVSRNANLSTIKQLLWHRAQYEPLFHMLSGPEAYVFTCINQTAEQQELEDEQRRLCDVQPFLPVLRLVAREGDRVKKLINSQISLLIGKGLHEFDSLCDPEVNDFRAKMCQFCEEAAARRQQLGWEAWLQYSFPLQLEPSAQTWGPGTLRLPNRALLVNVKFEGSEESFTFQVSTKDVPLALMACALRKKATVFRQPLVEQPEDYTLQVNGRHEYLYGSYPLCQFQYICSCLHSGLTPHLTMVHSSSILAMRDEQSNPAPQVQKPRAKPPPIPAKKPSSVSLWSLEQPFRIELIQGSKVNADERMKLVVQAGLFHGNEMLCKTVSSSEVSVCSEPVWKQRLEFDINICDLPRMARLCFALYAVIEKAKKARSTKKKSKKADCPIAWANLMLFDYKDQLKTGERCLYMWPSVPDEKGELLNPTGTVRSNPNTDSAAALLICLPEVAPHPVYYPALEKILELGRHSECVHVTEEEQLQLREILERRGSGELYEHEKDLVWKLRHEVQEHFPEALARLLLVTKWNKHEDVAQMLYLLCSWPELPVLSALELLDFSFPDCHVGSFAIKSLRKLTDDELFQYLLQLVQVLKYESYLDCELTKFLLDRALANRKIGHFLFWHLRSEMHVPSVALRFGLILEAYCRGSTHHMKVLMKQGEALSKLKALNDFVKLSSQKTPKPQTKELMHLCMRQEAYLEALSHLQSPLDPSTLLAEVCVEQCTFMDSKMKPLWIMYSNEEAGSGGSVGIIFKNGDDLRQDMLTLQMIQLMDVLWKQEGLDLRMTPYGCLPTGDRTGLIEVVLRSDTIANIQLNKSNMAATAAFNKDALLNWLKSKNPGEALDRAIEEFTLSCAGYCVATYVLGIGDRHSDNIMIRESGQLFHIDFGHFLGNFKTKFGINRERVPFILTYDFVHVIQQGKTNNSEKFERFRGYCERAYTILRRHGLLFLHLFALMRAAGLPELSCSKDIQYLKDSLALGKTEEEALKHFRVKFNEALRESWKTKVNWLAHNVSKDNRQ
T2 sequence (P27986 whole entry partner): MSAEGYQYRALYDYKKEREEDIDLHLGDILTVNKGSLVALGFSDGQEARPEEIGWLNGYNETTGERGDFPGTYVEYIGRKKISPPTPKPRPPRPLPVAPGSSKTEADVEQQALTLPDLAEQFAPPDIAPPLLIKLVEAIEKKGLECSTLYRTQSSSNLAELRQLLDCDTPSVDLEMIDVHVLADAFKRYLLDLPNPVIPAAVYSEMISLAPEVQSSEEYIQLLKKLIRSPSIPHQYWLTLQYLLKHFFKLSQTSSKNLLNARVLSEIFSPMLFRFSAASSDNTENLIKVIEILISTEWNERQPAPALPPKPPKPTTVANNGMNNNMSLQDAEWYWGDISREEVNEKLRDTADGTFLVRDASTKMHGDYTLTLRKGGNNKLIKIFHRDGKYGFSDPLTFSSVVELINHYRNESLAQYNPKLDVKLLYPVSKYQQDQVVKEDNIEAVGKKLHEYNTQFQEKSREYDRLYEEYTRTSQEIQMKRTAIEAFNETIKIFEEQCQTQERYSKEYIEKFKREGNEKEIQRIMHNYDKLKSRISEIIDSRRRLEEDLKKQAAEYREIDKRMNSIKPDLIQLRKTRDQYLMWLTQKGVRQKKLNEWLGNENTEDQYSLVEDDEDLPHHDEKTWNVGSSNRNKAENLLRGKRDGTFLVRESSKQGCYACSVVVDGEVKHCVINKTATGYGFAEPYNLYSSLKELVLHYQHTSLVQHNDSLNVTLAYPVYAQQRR
T1 sequence (P42336 whole entry, species assumed): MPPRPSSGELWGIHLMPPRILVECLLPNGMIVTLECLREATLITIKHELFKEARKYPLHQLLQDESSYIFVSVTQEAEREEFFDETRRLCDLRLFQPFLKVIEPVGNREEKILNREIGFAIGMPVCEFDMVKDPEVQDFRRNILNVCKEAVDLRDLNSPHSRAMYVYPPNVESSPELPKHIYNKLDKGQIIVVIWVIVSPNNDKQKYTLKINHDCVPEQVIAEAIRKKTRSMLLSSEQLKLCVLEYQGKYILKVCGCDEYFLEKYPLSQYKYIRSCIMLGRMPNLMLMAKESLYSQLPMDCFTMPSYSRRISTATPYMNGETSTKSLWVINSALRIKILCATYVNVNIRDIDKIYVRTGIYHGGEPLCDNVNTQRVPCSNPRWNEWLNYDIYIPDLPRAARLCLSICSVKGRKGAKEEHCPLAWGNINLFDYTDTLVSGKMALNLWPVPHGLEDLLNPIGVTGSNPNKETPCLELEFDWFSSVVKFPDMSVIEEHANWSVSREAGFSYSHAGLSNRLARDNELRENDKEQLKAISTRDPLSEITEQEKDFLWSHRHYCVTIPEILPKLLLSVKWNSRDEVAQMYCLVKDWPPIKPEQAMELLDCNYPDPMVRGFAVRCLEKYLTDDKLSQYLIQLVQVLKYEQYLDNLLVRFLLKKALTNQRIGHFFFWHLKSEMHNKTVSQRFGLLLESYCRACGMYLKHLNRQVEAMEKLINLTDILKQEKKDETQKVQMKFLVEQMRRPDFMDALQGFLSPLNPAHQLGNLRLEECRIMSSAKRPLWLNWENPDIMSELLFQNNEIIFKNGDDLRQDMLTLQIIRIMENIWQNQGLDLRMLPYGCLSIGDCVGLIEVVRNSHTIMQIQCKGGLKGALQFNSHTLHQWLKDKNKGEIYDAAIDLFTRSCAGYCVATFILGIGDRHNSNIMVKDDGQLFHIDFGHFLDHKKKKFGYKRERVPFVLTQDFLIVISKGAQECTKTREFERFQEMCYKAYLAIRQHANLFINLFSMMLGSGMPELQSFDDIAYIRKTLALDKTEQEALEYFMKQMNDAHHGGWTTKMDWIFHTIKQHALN
T1 sequence (P27986 whole entry partner, species assumed): as the sequence (P27986 whole entry partner) above

Take `CCc1nc2ccccc2n1-c1nc(N2CCOCC2)c2nc(OC3CN(C4CC[S+]([O-])CC4)C3)n(C)c2n1` (single isomer, unassigned) [Compound 123, 4-(2-(2-ethyl-1H-benzo[d]imidazol-1-yl)-9-methyl-8-(1-(1-oxo-tetrahydro-2H-thiopyran-4-yl)azetidin-3-yloxy)-9H-purin-6-yl)morpholine]: the “Ki p110 alpha/ Ki p110 delta” value in assay [1] was 178. For the same molecule, in assay [2], the Ki was 0.657 nM.
`CCc1nc2ccccc2n1-c1nc(N2CCOCC2)c2nc(OC3CN(C(=O)[C@@H](C)OC)C3)n(C)c2n1` [Compound 117, (R)-1-(3-(2-(2-ethyl-1H-benzo[d]imidazol-1-yl)-9-methyl-6-morpholino-9H-purin-8-yloxy)azetidin-1-yl)-2-methoxypropan-1-one]: the “Ki p110 alpha/ Ki p110 delta” value in assay [1] was determined as 132. Besides, the Ki in assay [2] was found to be 0.503 nM.
Consider `CO[C@H](C)c1nc2ccccc2n1-c1nc(N2CCOCC2)c2nc(OC3CN(C(=O)C(C)C)C3)n(C)c2n1` [Compound 140, (R)-1-(3-(2-(2-(1-methoxyethyl)-1H-benzo[d]imidazol-1-yl)-9-methyl-6-morpholino-9H-purin-8-yloxy)azetidin-1-yl)-2-methylpropan-1-one], for which, in assay [1], the “Ki p110 alpha/ Ki p110 delta” value was determined as 64. Also, in assay [2], the Ki is 1.53 nM.
Consider `CCc1nc2ccccc2n1-c1nc(N2CCOCC2)c2nc(OC3CN(C(=O)C(C)(C)N)C3)n(C)c2n1` [Compound 121, 2-amino-1-(3-(2-(2-ethyl-1H-benzo[d]imidazol-1-yl)-9-methyl-6-morpholino-9H-purin-8-yloxy)azetidin-1-yl)-2-methylpropan-1-one], for which, in assay [1], the “Ki p110 alpha/ Ki p110 delta” value amounted to 51. In addition, the Ki in assay [2] was 1.29 nM.
As to `CCc1nc2ccccc2n1-c1nc(N2CCOCC2)c2nc(OC3CN(C(=O)[C@@H]4CC45CCC5)C3)n(C)c2n1` [Compound 153, (R)-(3-(2-(2-ethyl-1H-benzo [d]imidazol-l-yl)-9-methyl-6-morpholino-9H-purin-8-yloxy)azetidin-1-yl) (spiro[2.3]hexan-1-yl) methanone], the “Ki p110 alpha/ Ki p110 delta” value in assay [1] came out at 159. Also, the Ki in assay [2] amounted to 0.734 nM.
In the case of `CN(C)c1nc2ccccc2n1-c1nc(N2CCOCC2)c2nc(OC3CN(C4CCS(=O)(=O)CC4)C3)n(C)c2n1` [Compound 137, N,N-dimethyl-1-(9-methyl-6-morpholino-8-(1-(1,1-dioxo-tetrahydro-2H-thiopyran-4-yl)azetidin-3-yloxy)-9H-purin-2-yl)-1H-benzo[d] imidazol-2-amine], in assay [1], the “Ki p110 alpha/ Ki p110 delta” value stood at 121. In addition, the Ki in assay [2] amounted to 4.73 nM.
For `CCc1nc2ccccc2n1-c1nc(N2CCOCC2)c2nc(OC3CCN(C(=O)C4CC4)CC3)n(C)c2n1` [Compound 110, cyclopropyl(4-(2-(2-ethyl-1H-benzo[d]imidazol-1-yl)-9-methyl-6-morpholino-9H-purin-8-yloxy)piperidin-1-yl)methanone], the “Ki p110 alpha/ Ki p110 delta” value in assay [1] is 98. In addition, in assay [2], the Ki worked out at 1.05 nM.
Regarding `CCc1nc2ccccc2n1-c1nc(N2CCOCC2)c2nc(OC3CN(C(=O)C4(C#N)CC4)C3)n(C)c2n1` [Compound 150, 1-(3-(2-(2-ethyl-1H-benzo [d]imidazol-1-yl)-9-methyl-6-morpholino-9H-purin-8-yloxy)azetidine-1-carbonyl) cyclopropanecarbonitrile], in assay [1], the “Ki p110 alpha/ Ki p110 delta” value is 30. Besides, the Ki in assay [2] was found to be 2.86 nM.
`CCc1nc2ccccc2n1-c1nc(N2CCOCC2)c2nc(OC3CCN(C4CCS(=O)(=O)CC4)CC3)n(C)c2n1` [Compound 106, 4-(2-(2-ethyl-1H-benzo[d]imidazol-1-yl)-9-methyl-8-(1,1-dioxo-1-(tetrahydro-2H-thiopyran-4-yl)piperidin-4-yloxy)-9H-purin-6-yl)morpholine]: in assay [1], the “Ki p110 alpha/ Ki p110 delta” value is 73. Further, the Ki in assay [2] was found to be 0.441 nM.
Regarding `CCc1nc2ccccc2n1-c1nc(N2CCOCC2)c2nc(OC3CCN(C(=O)C(C)(C)O)CC3)n(C)c2n1` [Compound 112, 1-(4-(2-(2-ethyl-1H-benzo[d]imidazol-1-yl)-9-methyl-6-morpholino-9H-purin-8-yloxy)piperidin-1-yl)-2-hydroxy-2-methylpropan-1-one], in assay [1], the “Ki p110 alpha/ Ki p110 delta” value was 122. For the same molecule, in assay [2], the Ki is 1.4 nM.
For `CCc1nc2ccccc2n1-c1nc(N2CCOCC2)c2nc(OC3CN(C(=O)[C@H](C)OC)C3)n(C)c2n1` [Compound 120, (S)-1-(3-(2-(2-ethyl-1H-benzo[d]imidazol-1-yl)-9-methyl-6-morpholino-9H-purin-8-yloxy)azetidin-1-yl)-2-methoxypropan-1-one], the “Ki p110 alpha/ Ki p110 delta” value in assay [1] is given as 93. Further, the Ki in assay [2] was 1.24 nM.
As for `Cn1c(OC2CN(C3CCS(=O)(=O)CC3)C2)nc2c(N3CCOCC3)nc(-n3c(CCO)nc4ccccc43)nc21` [Compound 136, 2-(1-(9-methyl-6-morpholino-8-(1-(1,1-dioxo-tetrahydro-2H-thiopyran-4-yl)azetidin-3-yloxy)-9H-purin-2-yl)-1H-benzo[d]imidazol-2-yl)ethanol], in assay [1], the “Ki p110 alpha/ Ki p110 delta” value is reported as 90. Besides, in assay [2], the Ki came to 4.94 nM.
The corresponding values for `CCc1nc2ccccc2n1-c1nc(N2CCOCC2)c2nc(OC3CN(C(=O)C(C)C)C3C)n(C)c2n1` (stereo not drawn) [Compound 149, 1-(3-(2-(2-ethyl-1H-benzo [d]imidazol-1-yl)-9-methyl-6-morpholino-9H-purin-8-yloxy)-2-methylazetidin-1-yl)-2-methylpropan-1-one] are 277 and 0.444 nM.
In the case of `CCc1nc2ccccc2n1-c1nc(N2CCOCC2)c2nc(OC3CCN(C(C)=O)CC3)n(C)c2n1` [Compound 102, 1-(4-(2-(2-ethyl-1H-benzo[d]imidazol-1-yl)-9-methyl-6-morpholino-9H-purin-8-yloxy)piperidin-1-yl)ethanone], the “Ki p110 alpha/ Ki p110 delta” value in assay [1] is reported as 81. Further, the Ki in assay [2] amounted to 1.02 nM.
Regarding `CCc1nc2ccccc2n1-c1nc(N2CCOCC2)c2nc(OC3CCN(C(=O)C(C)(C)C)CC3)n(C)c2n1` [Compound 113, 1-(4-(2-(2-ethyl-1H-benzo[d]imidazol-1-yl)-9-methyl-6-morpholino-9H-purin-8-yloxy)piperidin-1-yl)-2,2-dimethylpropan-1-one], the “Ki p110 alpha/ Ki p110 delta” value in assay [1] is 178. Besides, the Ki in assay [2] was determined as 0.879 nM.
The like results for `Cc1nc2ccccc2n1-c1nc(N2CCOCC2)c2nc(OC3CCN(C4CCOCC4)CC3)n(C)c2n1` [Compound 127, 4-(9-methyl-2-(2-methyl-1H-benzo[d]imidazol-1-yl)-8-(1-(tetrahydro-2H-pyran-4-yl)piperidin-4-yloxy)-9H-purin-6-yl)morpholine] were, in that order, 105 and 0.252 nM.
`CCc1nc2ccccc2n1-c1nc(N2CCOCC2)c2nc(OC3CN(C(=O)[C@H]4CC45CCC5)C3)n(C)c2n1` [Compound 152, (S)-(3-(2-(2-ethyl-1H-benzo [d]imidazol-1-yl)-9-methyl-6-morpholino-9H-purin-8-yloxy)azetidin-1-yl) (spiro[2.3]hexan-1-yl) methanone]: the “Ki p110 alpha/ Ki p110 delta” value in assay [1] is recorded as 107. The Ki in assay [2] was found to be 0.701 nM.
Consider `CCc1nc2ccccc2n1-c1nc(N2CCOCC2)c2nc(OC3CN(C(=O)C4(C)CC4)C3)n(C)c2n1` [Compound 145, (3-(2-(2-ethyl-1H-benzo [d]imidazol-1-yl)-9-methyl-6-morpholino-9H-purin-8-yloxy)azetidin-1-yl)(1-methylcyclopropyl)methanone], for which, in assay [1], the “Ki p110 alpha/ Ki p110 delta” value is recorded as 100. Further, the Ki in assay [2] was 0.826 nM.
Consider `Cn1c(OC2CCN(C3CCOCC3)CC2)nc2c(N3CCOCC3)nc(-c3c(F)ccc4[nH]ccc34)nc21` [Compound 125, 4-(2-(5-fluoro-1H-indol-4-yl)-9-methyl-8-(1-(tetrahydro-2H-pyran-4-yl)piperidin-4-yloxy)-9H-purin-6-yl)morpholine], for which, in assay [1], the “Ki p110 alpha/ Ki p110 delta” value turned out to be 485. Also, the Ki in assay [2] was found to be 0.98 nM.
With `CCc1nc2ccccc2n1-c1nc(N2CCOCC2)c2nc(OC3CN(C(=O)C4(C(F)(F)F)CC4)C3)n(C)c2n1` [Compound 155, (3-(2-(2-ethyl-1H-benzo[d]imidazol-1-yl)-9-methyl-6-morpholino-9H-purin-8-yloxy)azetidin-1-yl)(1-(trifluoromethyl)cyclopropyl) methanone], in assay [1], the “Ki p110 alpha/ Ki p110 delta” value is 91. Besides, the Ki in assay [2] is 0.321 nM.
In the case of `CCc1nc2ccccc2n1-c1nc(N2CCOCC2)c2nc(OC3CN(C4CCOCC4)C3)n(C)c2n1` [Compound 116, 4-(2-(2-ethyl-1H-benzo[d]imidazol-1-yl)-9-methyl-8-(1-(tetrahydro-2H-pyran-4-yl)azetidin-3-yloxy)-9H-purin-6-yl)morpholine], in assay [1], the “Ki p110 alpha/ Ki p110 delta” value was 118. Further, the Ki in assay [2] is 1.28 nM.
